Source: patent US6872690B2, “Herbicidal 2-alkynyl-pyri (mi) dines” (WYETH, priority 2001, dated 2005)

Columns and labels:
Type in all cases: in vivo
[1] = system: Echinochloa crus-galli; assay: Pre-emergence test; conditions: 3 weeks after treatment
Procedure, shortened: (§1)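 Seeds sown in horticultural loam; compound in acetone containing 0.4% wetting agent, then diluted in water; formulation sprayed onto the soil surface at 900 L/ha; rates of 0.013, 0.025, 0.100 and 0.400 kg/ha; pots rated after 2–4 weeks against untreated controls.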

[2] = system: Abutilon theophrasti; assay: Pre-emergence test; conditions: 3 weeks after treatment
Procedure, shortened: as §1

[3] = system: Galium aparine; assay: Pre-emergence test; conditions: 3 weeks after treatment
Procedure, shortened: as §1

[4] = system: Ipomoea hederacea; assay: Pre-emergence test; conditions: 3 weeks after treatment
Procedure, shortened: as §1

[5] = system: Ambrosia artemisifolia; assay: Pre-emergence test; conditions: 3 weeks after treatment
Procedure, shortened: as §1

[6] = system: Digitaria sanguinalis; assay: Pre-emergence test; conditions: 3 weeks after treatment
Procedure, shortened: as §1

[7] = system: Alopecurus myosuroides; assay: Pre-emergence test; conditions: 3 weeks after treatment
Procedure, shortened: as §1

[8] = system: Orysa sativa; assay: Pre-emergence test; conditions: 3 weeks after treatment
Procedure, shortened: as §1

[9] = system: Zea mays; assay: Pre-emergence test; conditions: 3 weeks after treatment
Procedure, shortened: as §1

[10] = system: Setaria viridis; assay: Pre-emergence test; conditions: 3 weeks after treatment
Procedure, shortened: as §1

[11] = system: Cassia obtusifolia; assay: Pre-emergence test; conditions: 3 weeks after treatment
Procedure, shortened: as §1

[12] = system: Triticum aestivum; assay: Pre-emergence test; conditions: 3 weeks after treatment
Procedure, shortened: as §1

[13] = system: Glycine max; assay: Pre-emergence test; conditions: 3 weeks after treatment
Procedure, shortened: as §1

[14] = system: Lamium purpureum; assay: Pre-emergence test; conditions: 3 weeks after treatment
Procedure, shortened: as §1

[15] = system: Matricaria inodora; assay: Pre-emergence test; conditions: 3 weeks after treatment
Procedure, shortened: as §1

[16] = system: Echinochloa crus-galli; assay: Post-emergence herbicidal activity test; conditions: 2-4 weeks after treatment
Procedure, shortened: (§2)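 Compounds in acetone solution were diluted with water and sprayed onto seedling plants at dosages equivalent to about 0.025 to 0.4 kg test compound per hectare per pot. Plants were then kept on greenhouse benches under conventional care and visually rated on a scoring scale 2 to 4 weeks after treatment.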

[17] = system: Abutilon theophrasti; assay: Post-emergence herbicidal activity test; conditions: 2-4 weeks after treatment
Procedure, shortened: as §2

[18] = system: Galium aparine; assay: Post-emergence herbicidal activity test; conditions: 2-4 weeks after treatment
Procedure, shortened: as §2

[19] = system: Ipomoea hederacea; assay: Post-emergence herbicidal activity test; conditions: 2-4 weeks after treatment
Procedure, shortened: as §2

[20] = system: Ambrosia artemisifolia; assay: Post-emergence herbicidal activity test; conditions: 2-4 weeks after treatment
Procedure, shortened: as §2

[21] = system: Digitaria sanguinalis; assay: Post-emergence herbicidal activity test; conditions: 2-4 weeks after treatment
Procedure, shortened: as §2

[22] = system: Alopecurus myosuroides; assay: Post-emergence herbicidal activity test; conditions: 2-4 weeks after treatment
Procedure, shortened: as §2

[23] = system: Orysa sativa; assay: Post-emergence herbicidal activity test; conditions: 2-4 weeks after treatment
Procedure, shortened: as §2

[24] = system: Zea mays; assay: Post-emergence herbicidal activity test; conditions: 2-4 weeks after treatment
Procedure, shortened: as §2

[25] = system: Stellaria media; assay: Post-emergence herbicidal activity test; conditions: 2-4 weeks after treatment
Procedure, shortened: as §2

[26] = system: Setaria viridis; assay: Post-emergence herbicidal activity test; conditions: 2-4 weeks after treatment
Procedure, shortened: as §2

[27] = system: Cassia obtusifolia; assay: Post-emergence herbicidal activity test; conditions: 2-4 weeks after treatment
Procedure, shortened: as §2

[28] = system: Triticum aestivum; assay: Post-emergence herbicidal activity test; conditions: 2-4 weeks after treatment
Procedure, shortened: as §2

[29] = system: Glycine max; assay: Post-emergence herbicidal activity test; conditions: 0.100 kg/ha, 2-4 weeks after treatment
Procedure, shortened: as §2

[30] = system: Matricaria inodora; assay: Post-emergence herbicidal activity test; conditions: 2-4 weeks after treatment
Procedure, shortened: as §2

## Cc1cc(Oc2cc(C(F)(F)F)nn2C)nc(C#Cc2ccccc2)n1 [Example 161]
[1]; 0.025 kg/ha
  Assessment (pre-emergence application) ECHCG: 0 (0-No effect)
[1]; 0.100 kg/ha
  Assessment (pre-emergence application) ECHCG: 1 (1-Trace effect)
[1]; 0.400 kg/ha
  Assessment (pre-emergence application) ECHCG: 3 (3-Moderate effect)
[2]; 0.025 kg/ha
  Assessment (pre-emergence application) ABUTH: 2 (2-Slight effect)
[2]; 0.100 kg/ha
  Assessment (pre-emergence application) ABUTH: 4 (4-Injury)
[2]; 0.400 kg/ha
  Assessment (pre-emergence application) ABUTH: 4 (4-Injury)
[3]; 0.025 kg/ha
  Assessment (pre-emergence application) GALAP: 1 (1-Trace effect)
[3]; 0.100 kg/ha
  Assessment (pre-emergence application) GALAP: 1 (1-Trace effect)
[3]; 0.400 kg/ha
  Assessment (pre-emergence application) GALAP: 3 (3-Moderate effect)
[4]; 0.025 kg/ha
  Assessment (pre-emergence application) IPOHE: 0 (0-No effect)
[4]; 0.100 kg/ha
  Assessment (pre-emergence application) IPOHE: 3 (3-Moderate effect)
[4]; 0.400 kg/ha
  Assessment (pre-emergence application) IPOHE: 3 (3-Moderate effect)
[5]; 0.025 kg/ha
  Assessment (pre-emergence application) MBEL: 2 (2-Slight effect)
[5]; 0.100 kg/ha
  Assessment (pre-emergence application) MBEL: 2 (2-Slight effect)
[6]; 0.025 kg/ha
  Assessment (pre-emergence application) DIGSA: 1 (1-Trace effect)
[6]; 0.100 kg/ha
  Assessment (pre-emergence application) DIGSA: 3 (3-Moderate effect)
[6]; 0.400 kg/ha
  Assessment (pre-emergence application) DIGSA: 9 (9-Complete kill)
[7]; 0.025 kg/ha
  Assessment (pre-emergence application) ALOMY: 9 (9-Complete kill)
[7]; 0.100 kg/ha
  Assessment (pre-emergence application) ALOMY: 1 (1-Trace effect)
[7]; 0.400 kg/ha
  Assessment (pre-emergence application) ALOMY: 3 (3-Moderate effect)
[8]; 0.025 kg/ha
  Assessment (pre-emergence application) ORYSA: 0 (0-No effect)
[8]; 0.100 kg/ha
  Assessment (pre-emergence application) ORYSA: 1 (1-Trace effect)
[8]; 0.400 kg/ha
  Assessment (pre-emergence application) ORYSA: 1 (1-Trace effect)
[9]; 0.025 kg/ha
  Assessment (pre-emergence application) ZEAMX: 0 (0-No effect)
[9]; 0.100 kg/ha
  Assessment (pre-emergence application) ZEAMX: 0 (0-No effect)
[9]; 0.400 kg/ha
  Assessment (pre-emergence application) ZEAMX: 0 (0-No effect)
[10]; 0.025 kg/ha
  Assessment (pre-emergence application) SETVI: 2 (2-Slight effect)
[10]; 0.100 kg/ha
  Assessment (pre-emergence application) SETVI: 4 (4-Injury)
[10]; 0.400 kg/ha
  Assessment (pre-emergence application) SETVI: 7 (7-Good herbicidal effect)
[11]; 0.025 kg/ha
  Assessment (pre-emergence application) CASOB: 0 (0-No effect)
[11]; 0.100 kg/ha
  Assessment (pre-emergence application) CASOB: 0 (0-No effect)
[11]; 0.400 kg/ha
  Assessment (pre-emergence application) CASOB: 0 (0-No effect)
[12]; 0.025 kg/ha
  Assessment (pre-emergence application) TRZWA: 0 (0-No effect)
[12]; 0.100 kg/ha
  Assessment (pre-emergence application) TRZWA: 0 (0-No effect)
[12]; 0.400 kg/ha
  Assessment (pre-emergence application) TRZWA: 0 (0-No effect)
[13]; 0.025 kg/ha
  Assessment (pre-emergence application) GLXMA: 0 (0-No effect)
[13]; 0.100 kg/ha
  Assessment (pre-emergence application) GLXMA: 0 (0-No effect)
[13]; 0.400 kg/ha
  Assessment (pre-emergence application) GLXMA: 1 (1-Trace effect)
[14]; 0.025 kg/ha
  Assessment (pre-emergence application) LAMPU: 0 (0-No effect)
[14]; 0.100 kg/ha
  Assessment (pre-emergence application) LAMPU: 5 (5-Definite injury)
[14]; 0.400 kg/ha
  Assessment (pre-emergence application) LAMPU: 7 (7-Good herbicidal effect)
[15]; 0.025 kg/ha
  Assessment (pre-emergence application) MATIN: 3 (3-Moderate effect)
[15]; 0.100 kg/ha
  Assessment (pre-emergence application) MATIN: 4 (4-Injury)
[15]; 0.400 kg/ha
  Assessment (pre-emergence application) MATIN: 8 (8-Approaching complete kill)
[16]; 0.100 kg/ha
  Post-emergence application ECHCG: 1 (1-Trace effect)
[16]; 0.400 kg/ha
  Post-emergence application ECHCG: 2 (2-Slight effect)
[17]; 0.100 kg/ha
  Post-emergence application ABUTH: 4 (4-Injury)
[17]; 0.400 kg/ha
  Post-emergence application ABUTH: 5 (5-Definite injury)
[18]; 0.100 kg/ha
  Post-emergence application GALAP: 7 (7-Good herbicidal effect)
[18]; 0.400 kg/ha
  Post-emergence application GALAP: 8 (8-Approaching complete kill)
[19]; 0.100 kg/ha
  Post-emergence application IPOHE: 9 (9-Complete kill)
[19]; 0.400 kg/ha
  Post-emergence application IPOHE: 9 (9-Complete kill)
[20]; 0.100 kg/ha
  Post-emergence application AMBEL: 5 (5-Definite injury)
[20]; 0.400 kg/ha
  Post-emergence application AMBEL: 5 (5-Definite injury)
[21]; 0.100 kg/ha
  Post-emergence application DIGSA: 2 (2-Slight effect)
[21]; 0.400 kg/ha
  Post-emergence application DIGSA: 2 (2-Slight effect)
[22]; 0.100 kg/ha
  Post-emergence application ALOMY: 2 (2-Slight effect)
[22]; 0.400 kg/ha
  Post-emergence application ALOMY: 3 (3-Moderate effect)
[23]; 0.100 kg/ha
  Post-emergence application ORYSA: 2 (2-Slight effect)
[23]; 0.400 kg/ha
  Post-emergence application ORYSA: 3 (3-Moderate effect)
[24]; 0.100 kg/ha
  Post-emergence application ZEAMX: 2 (2-Slight effect)
[24]; 0.400 kg/ha
  Post-emergence application ZEAMX: 2 (2-Slight effect)
[25]; 0.100 kg/ha
  Post-emergence application STEME: 2 (2-Slight effect)
[25]; 0.400 kg/ha
  Post-emergence application STEME: 4 (4-Injury)
[26]; 0.100 kg/ha
  Post-emergence application SETVI: 4 (4-Injury)
[26]; 0.400 kg/ha
  Post-emergence application SETVI: 6 (6-Herbicidal effect)
[27]; 0.100 kg/ha
  Post-emergence application CASOB: 1 (1-Trace effect)
[27]; 0.400 kg/ha
  Post-emergence application CASOB: 3 (3-Moderate effect)
[28]; 0.100 kg/ha
  Post-emergence application TRZWA: 2 (2-Slight effect)
[28]; 0.400 kg/ha
  Post-emergence application TRZWA: 2 (2-Slight effect)
[29]
  Post-emergence application GLXMA: 3 (3-Moderate effect)
[30]; 0.100 kg/ha
  Post-emergence application MATIN: 3 (3-Moderate effect)
[30]; 0.400 kg/ha
  Post-emergence application MATIN: 4 (4-Injury)
